{"source": "patent US20170368104A1", "about": "“INDUCTION OF TOLERANCE IN LUNG ALLOGRAFT TRANSPLANTATION” (Washington University, priority 2013, published 2017)"}
{"tested_on": "B6 CD45.1^+ CD4^+ T cells", "test": "In vitro mixed lymphocyte reaction, CD4+ responders", "assay_type": "cell-based, mouse", "settings": "agent added to MLR containing accepting allograft-derived CD8+ T cells", "method": "In vitro mixed lymphocyte reactions were performed in round bottom 96-well plates using 3×10^5 T cell-depleted Balb/c splenocyte stimulators with 10^5 CFSE-labeled B6 CD45.1^+ CD4^+ or CD8^+ T cell responders and, as indicated, 10^5 CD8^+ T cells isolated from lungs or spleens of immunosuppressed B6 recipients of Balb/c allografts. For some experiments central and effector memory T cells were sorted from lungs of resting mice. T cell responses were evaluated flow cytometrically on day 5. All compounds inhibiting the metabolism of essential amino acids were obtained from Sigma-Aldrich (St. Louis, Mo.) and added to the co-cultures as previously described for the duration of the experiment (41)."}
{"smiles": "N=C(N)NCCC[C@H](N)C(=O)O", "note": "[L-arginine]", "CD8+ T cell-mediated suppression of CD4+ T lymphocyte proliferation": "did not reverse"}
{"smiles": "CC(=N)NCCCC[C@H](N)C(=O)O.Cl.Cl", "note": "[L-nil, N6-(1-iminoethyl)-L-lysine, dihydrochloride]", "CD8+ T cell-mediated suppression of CD4+ T lymphocyte proliferation": "able to attenuate"}
{"smiles": "NC(=NCCC[C@H](N)C(=O)O)N[N+](=O)[O-]", "note": "[L-NNA, NG-nitro-L-Arginine; L-NG-Nitroarginine]", "CD8+ T cell-mediated suppression of CD4+ T lymphocyte proliferation": "able to attenuate"}
{"smiles": "CCC[C@H](N)C(=O)O", "note": "[L-novaline]", "CD8+ T cell-mediated suppression of CD4+ T lymphocyte proliferation": "did not affect proliferation"}
{"smiles": "Cn1cc(C[C@H](N)C(=O)O)c2ccccc21", "note": "[1-methyl-tryptophan]", "CD8+ T cell-mediated suppression of CD4+ T lymphocyte proliferation": "did not affect proliferation"}
